System: MCF-10A ErbB2 cells
Experiment: Western blot of BZX-treated human breast cancer cells (O-GlcNAcylation)
Assay type: cell-based
Settings: 200 μM
Description: Western Blot of BZX-Treated Human Breast Cancer Cells MCF-10A ErbB2 cells were obtained from Joan Brugge's lab at Harvard Medical School (Boston, Mass.). Cells were maintained in DMEM/F12 (Invitrogen) supplemented with 5% horse serum (Invitrogen), 20 ng/ml EGF (Peprotech), 10 μg/ml insulin (Sigma), 100 ng/ml cholera toxin (Sigma), […] hydrocortisone (Sigma), 50 U/ml penicillin and 50 μg/ml streptomycin (Invitrogen). When cells were grown to 70% confluence, old growth medium was removed. Cells were rinsed twice with PBS, and were grown in glucose starvation medium (DMEM-no glucose; Invitrogen) supplemented with 1% horse serum, 50 U/ml penicillin and 50 μg/ml streptomycin) in the absence (control) and presence of (2) (200 μM) for 4 h. PUGNAc (100 μM, Sigma) and glucosamine (2 mM, EMD) were added to the cells and incubated for another 3 h. Cell lysates from 2−5×10^6 cells were prepared in M-PER mammalian protein extraction reagent (Pierce) supplemented with protease inhibitor cocktail (Sigma). Lysates were cleared by centrifugation at 16,000 g for 10 min at 4° C. and analyzed by SDS-PAGE. Proteins were transferred to a nitrocellulose membrane (Bio-Rad Laboratories) and O-GlcNAcylation was detected with anti-O-GlcNAc antibody (CTD 110.6, Sigma, used at 1:5,000) and a secondary anti-mouse IgM-HRP antibody (Pierce, used at 1:20,000). Western Blot of BZX Inhibitor Treated Cell Lysates

SMILES: COc1ccc(OC(=O)n2c(=O)oc3cc(C(C)=O)ccc32)cc1 [Compound 2]
- inhibition of O-GlcNAcylation in cells: inhibits global O-GlcNAcylation in cells

Source: US9573911B2, “Diphosphate mimetics and uses thereof” (President and Fellows of Harvard College, priority 2011, dated 2017)
